From patent US20140350081A1, “INSECT G-COUPLED RECEPTORS USEFUL AS TARGETS FOR INSECTICIDES AND COMPOUNDS AND REAGENTS IDENTIFIED USING THE SAME” (priority 2011, published 2014)
Like-named read-outs stand apart in the source and are kept apart here.

Legend:
AaDOP1 [1] = biological target: T1, AaDOP1 (Aedes aegypti, UniProt H6D5H1); assay: CRELuc reporter dose-response in HEK293 cells stably expressing AaDOP1; assay type: cell-based; conditions: HEK293 cells stably expressing CRELuc reporter and AaDOP1
T1 sequence (H6D5H1 entry or part of it): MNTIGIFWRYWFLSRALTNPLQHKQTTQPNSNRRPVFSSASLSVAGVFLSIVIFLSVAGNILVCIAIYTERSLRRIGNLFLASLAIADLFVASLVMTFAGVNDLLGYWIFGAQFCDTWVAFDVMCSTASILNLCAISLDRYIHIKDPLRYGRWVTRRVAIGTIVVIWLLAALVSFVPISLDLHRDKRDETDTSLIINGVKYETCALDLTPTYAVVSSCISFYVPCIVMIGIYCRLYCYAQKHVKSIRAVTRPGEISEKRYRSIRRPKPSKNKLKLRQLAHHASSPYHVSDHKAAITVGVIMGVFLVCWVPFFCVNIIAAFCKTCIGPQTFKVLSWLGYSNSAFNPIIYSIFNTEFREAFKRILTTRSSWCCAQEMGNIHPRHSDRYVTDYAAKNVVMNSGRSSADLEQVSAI

Isdop1 [2] = biological target: T2, Isdop1 (Ixodes scapularis, UniProt A0ACM8FJJ0); assay: CRE-Luc reporter assay, HEK cells stably expressing Isdop1; assay type: cell-based
Isdop2 [3] = biological target: T3, Isdop2 (Ixodes scapularis, UniProt A0ACM8DGL0); assay: CRE-Luc reporter assay, HEK cells stably expressing Isdop2; assay type: cell-based
T3 sequence (A0ACM8DGL0 entry or part of it): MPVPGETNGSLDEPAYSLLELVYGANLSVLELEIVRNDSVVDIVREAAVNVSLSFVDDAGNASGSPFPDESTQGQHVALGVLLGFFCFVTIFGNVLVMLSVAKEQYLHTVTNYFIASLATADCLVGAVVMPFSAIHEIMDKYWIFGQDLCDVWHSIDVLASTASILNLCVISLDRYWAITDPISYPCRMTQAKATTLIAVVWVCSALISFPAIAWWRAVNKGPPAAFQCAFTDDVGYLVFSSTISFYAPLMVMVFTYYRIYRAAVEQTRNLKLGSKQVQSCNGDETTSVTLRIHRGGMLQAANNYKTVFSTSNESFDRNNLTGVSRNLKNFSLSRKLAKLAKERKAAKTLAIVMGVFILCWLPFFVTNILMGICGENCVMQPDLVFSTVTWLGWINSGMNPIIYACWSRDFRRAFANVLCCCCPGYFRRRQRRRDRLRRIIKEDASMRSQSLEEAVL

AaDOP1 [4] = biological target: T1, AaDOP1; conditions: single dose 10 μM, transient expression, n=3
AaDOP2 [5] = biological target: T4, AaDOP2 (Aedes aegypti, UniProt H6D5H2); conditions: single dose 10 μM, transient expression, n=3
T4 sequence (H6D5H2 entry or part of it): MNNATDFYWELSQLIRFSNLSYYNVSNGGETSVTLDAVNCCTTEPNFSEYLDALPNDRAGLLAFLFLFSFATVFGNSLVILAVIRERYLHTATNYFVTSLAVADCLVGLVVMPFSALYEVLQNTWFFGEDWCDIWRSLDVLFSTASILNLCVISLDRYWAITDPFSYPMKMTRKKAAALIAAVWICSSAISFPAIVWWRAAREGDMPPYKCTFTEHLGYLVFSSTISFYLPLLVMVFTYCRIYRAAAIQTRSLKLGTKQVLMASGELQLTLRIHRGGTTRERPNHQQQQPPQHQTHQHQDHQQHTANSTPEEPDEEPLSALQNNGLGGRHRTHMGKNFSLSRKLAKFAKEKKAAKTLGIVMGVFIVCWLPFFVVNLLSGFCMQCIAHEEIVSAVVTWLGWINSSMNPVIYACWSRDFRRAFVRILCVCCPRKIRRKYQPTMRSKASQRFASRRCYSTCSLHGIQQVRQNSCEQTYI

AaDOP2 [6] = biological target: T4, AaDOP2; assay: LOPAC1280 antagonist screen in HEK-CRELuc-Aadop2 cells; assay type: cell-based; conditions: 10 μM compound, 300 nM dopamine, quadruplicate
[7] = biological target: T5, human D1 dopamine receptor (hD1) (Homo sapiens, UniProt P21728); assay: cAMP accumulation secondary assay, hD1-expressing cells; assay type: cell-based, H. sapiens
T5 construct: expressed in transfected cells
T5 sequence (P21728 whole entry): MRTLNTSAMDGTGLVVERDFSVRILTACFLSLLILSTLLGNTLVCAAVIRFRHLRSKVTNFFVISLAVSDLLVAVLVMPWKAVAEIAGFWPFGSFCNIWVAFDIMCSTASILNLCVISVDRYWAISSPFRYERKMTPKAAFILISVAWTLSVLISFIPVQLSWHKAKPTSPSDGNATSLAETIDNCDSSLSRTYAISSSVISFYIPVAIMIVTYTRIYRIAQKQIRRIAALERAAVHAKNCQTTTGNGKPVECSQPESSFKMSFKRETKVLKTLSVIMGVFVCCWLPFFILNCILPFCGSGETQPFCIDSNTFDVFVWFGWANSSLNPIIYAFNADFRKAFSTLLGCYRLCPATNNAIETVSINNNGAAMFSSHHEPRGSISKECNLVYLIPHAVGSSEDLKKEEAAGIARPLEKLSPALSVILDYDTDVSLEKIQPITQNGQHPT

Ae. aegypti larvae = assay: whole plant or invertebrate; assay type: in vivo; conditions: Aedes aegypti; 400 μM, L4 larvae, 24 hours post-treatment; read-out: average larval mortality
Description: Single dose-point and dose response in vivo mosquito bioassays were used to assess the toxicity of selected AaDop2 receptor antagonists identified in the chemical screen. Larvae of Ae. aegypti (Liverpool strain) were reared under standard laboratory conditions on a 12 hr day/night cycle at 75% RH and 28° C., and bioassays were conducted at room temperature (22-24° C.). Larvae were transferred from standard rearing trays into six-well tissue culture plates (Corning, Inc. Corning, N.Y.) using a small plastic pipette. Ten L4-stage larvae were included per well, each containing five ml of de-ionized water and an assigned drug concentration. Controls were conducted similarly but lacked a drug treatment. Bioassays employed a double-blind experimental design, and larval mortality was scored 24 hr following administration of drugs. Single dose-point assays were conducted using 400 μM drug and included three biological replicates each consisting of 100 larvae.

AaDOP2 [8] = biological target: T4, AaDOP2; assay: HTRF cAMP accumulation concentration response assay (Cisbio Dynamic 2); assay type: cell-based
Ae. aegypti L3 larvae [9] = assay: Ae. aegypti L3 concentration response and time course assays; assay type: in vivo, Aedes aegypti; conditions: Aedes aegypti
Description: Briefly, chemistries were diluted to appropriate concentration in water and added to the wells of 24-well plates containing 5 L3 stage Ae. aegypti larvae to achieve a final concentration of 400, 200, 100, 50 and 25 μM in 1 ml sterile RO water. Chemistries were tested in quadruplicate at each concentration. […] Results reported here represent a minimum of three independent CRC experiments (i.e., n=3).

[10] = system: adult male Blatella germanica; assay: Cockroach contact assay (topical application); assay type: in vivo; conditions: 200 mM compound
Method in brief: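 Adult male German cockroaches (Blatella germanica) were dosed by topical application of compound to the ventral thorax, giving an effective dose of 50-80 μg depending on compound. Each test was a single-point dose run in triplicate in 24-well plates. Insects were incubated at 22° C. and scored for mortality, with commercial insecticides included as positive controls.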

[11] = system: adult Reticulitermes flavipes; assay: Termite immersion assay; assay type: in vivo; conditions: Reticulitermes flavipes, immersion, adult termite; for mortality at 100 µM: 100 µM compound (Fipronil 500 μM); for mortality at 100000 µM: 100 mM compound (Fipronil 500 μM)
[12] = system: adult male Blatella germanica; assay: Cockroach assay of Table 16 (title contact assay, text feeding assay); assay type: in vivo; conditions: 200 mM compound
Isdop2 [13] = biological target: T3, Isdop2; assay: cell-based; conditions: read-out: % Inhibition (of response to dopamine), Isdop2 screen
Isdop1 [14] = biological target: T2, Isdop1; assay: cAMP accumulation confirmation assay, cells stably expressing Isdop1; assay type: cell-based
Isdop2 [15] = biological target: T3, Isdop2; assay: cAMP accumulation confirmation assay, cells stably expressing Isdop2; assay type: cell-based
AaDOP2 [16] = biological target: T4, AaDOP2
Ae. aegypti L3 larvae [17] = assay: whole plant or invertebrate; conditions: Aedes aegypti
Ae. aegypti L3 larvae [18] = conditions: 400 μM, three independent experiments
AaDOP2 [19] = biological target: T4, AaDOP2; assay: cell-based
[20] = 48 h, read-out: Toxicity to Aedes aegypti larvae (mortality) 48 hours, 400 μM, L3 larvae, three independent experiments
[21] = 72 h, read-out: Toxicity to Aedes aegypti larvae (mortality) 72 hours, 400 μM, L3 larvae, three independent experiments

NCCc1ccc(O)c(O)c1 [Dopamine]
EC50 (AaDOP1 [1]): 3.1 ± 1.1 nM | EC50 (Isdop1 [2]): ~31 nM | EC50 (Isdop2 [3]): ~145 nM | increase of intracellular cAMP, AaDOP1 (AaDOP1 [4]): 2.7±0.6 fold | increase of intracellular cAMP, AaDOP2 (AaDOP2 [5]): 48±14 fold

CN(C)CCC=C1c2ccccc2CCc2ccccc21 [Amitriptyline, (3-(10,11-dihydro-5H-dibenzo[a,d][7]annulen-5-ylidene)-N,N-dimethylpropan-1-amine)]
% of the SCH23390 effect (AaDOP2 [6]): 90% | IC50 ([7]; read-out: IC50 value (at 100 nM dopamine for hD1), 100 nM dopamine, direct cAMP accumulation): 470 ± 49 nM | mortality at 400 µM (Ae. aegypti larvae): 93% | IC50 (AaDOP2 [8]; AaDOP2 expressing cells in the presence of dopamine, No Inhibition = <10% inhibition at 3 μM test compound, read-out: IC50 ± S.E.M. (nM), HTRF cAMP assay): 6.5 ± 0.92 nM | IC50 (AaDOP2 [8]; Avg IC50 (μM), in vitro Concentration Response Curve assay, n = 2, relative to control antagonist Amitriptyline): 7 nM | LC50 (Ae. aegypti L3 larvae [9]): 78 µM | % Mortality 24 hrs [10]: 5% | % Mortality 48 hrs [10]: 20% | % Mortality 72 hrs [10]: 25% | % Mortality 120 hrs [10]: 30% | % Mortality 240 hrs [10]: 35% | mortality at 100 µM ([11]; 24 h, read-out: % Mortality 24 hrs): 40% | mortality at 100000 µM ([11]; 48 h, read-out: % Mortality 48 hrs): 40% | mortality at 100000 µM ([11]; 72 h, read-out: % Mortality 72 hrs): 60% | mortality at 100000 µM ([11]; 120 h, read-out: % Mortality 120 hrs): 70% | mortality at 100 µM ([11]; 240 h, read-out: % Mortality 240 hrs): 70% | % Mortality 24 hrs [12]: 3% | % Mortality 48 hrs [12]: 20% | % Mortality 72 hrs [12]: 23% | % Mortality 120 hrs [12]: 30% | inhibition at 10 µM (Isdop2 [13]): 87% | IC50 (Isdop1 [14]): 77 µM | IC50 (Isdop2 [15]): 2900 nM | Relative fold selectivity for AaDOP2 vs. hD1 (AaDOP2 [16]; ratio of IC50 values hD1/AaDOP2): 36 fold | IC50 (AaDOP2 [16]; read-out: Affinity (Aedesdop2), values equal the Table 3 IC50 values): 14 nM | mortality at 400 µM (Ae. aegypti L3 larvae [17]; 24 h, read-out: Toxicity to Aedes aegypti larvae (mortality) 24 hours, 400 μM, L3 larvae, three independent experiments): 63% | mortality at 400 µM (Ae. aegypti L3 larvae [17]; [20]): 87% | mortality at 400 µM (Ae. aegypti L3 larvae [17]; [21]): 93%

CSc1ccc2c(c1)C(N1CCN(C)CC1)Cc1ccccc1S2 (centres unmarked) [Methiothepin, (1-methyl-4-(8-(methylthio)-10,11-dihydrodibenzo-[b,f]thiepin-10-yl)piperazines)]
% of the SCH23390 effect (AaDOP2 [6]): 99% | IC50 [7]: 80 ± 11 nM | inhibition at 10 µM (Isdop2 [13]): 100% | IC50 (Isdop1 [14]): 0.95 µM | IC50 (Isdop2 [15]): 85 nM | Relative fold selectivity for AaDOP2 vs. hD1 (AaDOP2 [16]): 5.7 fold | Toxicity to Aedes aegypti larvae (mortality) 24 hours (Ae. aegypti L3 larvae [18]): 100% | IC50 (AaDOP2 [19]): 14 ± 5.1 nM | mortality at 400 µM (Ae. aegypti L3 larvae [17]; 0.5 h, read-out: percent mortality 0.5 hr, 400 uM, L3 larvae, value for this scoring time): 10% | mortality at 400 µM (Ae. aegypti L3 larvae [17]; 1 h, read-out: percent mortality 1 hr, 400 uM, L3 larvae, per scoring time): 0% | mortality at 400 µM (Ae. aegypti L3 larvae [17]; 2 h, read-out: percent mortality 2 hr, 400 uM, L3 larvae, per scoring time): 20% | mortality at 400 µM (Ae. aegypti L3 larvae [17]; 3 h, read-out: mortality within three hours, 400 μM, L3 larvae): > 70% | mortality at 400 µM (Ae. aegypti L3 larvae [17]; 3 h, read-out: percent mortality 3 hr, 400 uM, L3 larvae, per scoring time): 0% | mortality at 400 µM (Ae. aegypti L3 larvae [17]; 4 h, read-out: percent mortality 4 hr, 400 uM, L3 larvae, per scoring time): 0% | mortality at 400 µM (Ae. aegypti L3 larvae [17]; 24 h, read-out: percent mortality 24 hr, 400 uM, L3 larvae, per scoring time): 0% | mortality at 400 µM (Ae. aegypti L3 larvae [17]; [20]): 100% | mortality at 400 µM (Ae. aegypti L3 larvae [17]; 48 h, read-out: percent mortality 48 hr, 400 uM, L3 larvae, per scoring time): 0% | mortality at 400 µM (Ae. aegypti L3 larvae [17]; 72 h, read-out: Cumulative % Mortality (72 hrs), 400 uM, L3 larvae): 100% | mortality at 400 µM (Ae. aegypti L3 larvae [17]; [21]): 100% | mortality at 400 µM (Ae. aegypti L3 larvae [17]; 72 h, read-out: percent mortality 72 hr, 400 uM, L3 larvae, per scoring time): 0%
